Reference: patent US20240065994A1, “COMPOSITIONS AND METHODS FOR PREVENTING OR TREATING DISEASES OR DISORDERS ASSOCIATED WITH PROTEIN MISFOLDING” (priority 2020, published 2024)

Tests used:
[1] = system: Wild-type and Akita mice; experiment: Glucose tolerance test (GTT); assay type: in vivo; conditions: 15 mM BSO, fifth week, 0.85 g/Kg D-glucose i.p., 6 h fast
Text: (§1) Animals: C57BL/6-Ins2^Akita/J (Akita) are an excellent model for Mutant-insulin Diabetes of Youth. Akita mice suffer from diabetes due to misfolded proinsulin, as the gene that codes for proinsulin (Ins2) is mutated. […] One male Akita mice was bred to female mice and the progeny were back-crossed to obtain enough number of heterozygous and wild-type male mice. The genotype of the mice was confirmed by using methods described previously. Briefly, the polymerase chain reaction product of the amplicons from the mutated region of the Ins 2 gene were subjected to restriction enzyme digestion and the products of the digestion were separated in agarose gels. Based on the number of fragments that resulted from the digestion, the genotypes of mice were confirmed. Only heterozygous male mice were used in the experiments. After two rounds of breeding, 12 heterozygous Akita and 12 wild-type Akita mice. […] Body weight (see FIG. 1) and food consumption (see FIG. 2) was monitored weekly. […] Mice were intraperitoneally injected with 0.85 g/Kg body weight D-glucose and blood glucose was determined at specified intervals. […] Blood glucose was measured from tail clips using AlphaTrak-2 (Parsipanny, NJ,) glucometer and compatible strips. Blood glucose was measured at 0, 5, 15, 30, 60, 90, 120, 150, 180, and 210 min after injection. […]

[2] = system: glutathione; experiment: Effect of BSO on blood glutathione concentration; assay type: in vivo, mice; conditions: after eight weeks on 15 mM BSO
Text: Animals: C57BL/6-Ins2^Akita/J (Akita) are an excellent model for Mutant-insulin Diabetes of Youth. Akita mice suffer from diabetes due to misfolded proinsulin, as the gene that codes for proinsulin (Ins2) is mutated. […] One male Akita mice was bred to female mice and the progeny were back-crossed to obtain enough number of heterozygous and wild-type male mice. The genotype of the mice was confirmed by using methods described previously. Briefly, the polymerase chain reaction product of the amplicons from the mutated region of the Ins 2 gene were subjected to restriction enzyme digestion and the products of the digestion were separated in agarose gels. Based on the number of fragments that resulted from the digestion, the genotypes of mice were confirmed. Only heterozygous male mice were used in the experiments. After two rounds of breeding, 12 heterozygous Akita and 12 wild-type Akita mice. After reaching 15-weeks of age, mice in each genotype were randomized into two groups of 6 animals each (n=6/group). […] Glutathione was determined as described in experimental methods section. […] Glutathione was determined by a colorimetric method based on an enzymatic recycling method using 5,5′-dithiobis-(2-nitrobenzoic acid) as described earlier (Teitze et al). Using a standard curve with known concentrations the glutathione concentrations were determined and expressed as μg/mL blood.

[3] = system: Wild-type and Akita mice; experiment: Insulin tolerance test (ITT); assay type: in vivo; conditions: 15 mM BSO, third week, 1 U/Kg insulin i.p., 6 h fast
Text: as §1, with “1 U/Kg” for “0.85 g/Kg”, “of insulin” for “D-glucose”

[4] = system: Akita mice; experiment: Effect of BSO on fasting glucose; assay type: in vivo; conditions: 15 mM BSO in drinking water, measured before and 1, 3, 4, 7, 8 weeks after, persisted throughout the study
Text: Experimentation was done with Akita mice, which harbor a similar mutation in the proinsulin gene as human patients with MIDY, are used as a laboratory model for MIDY. […] The Akita strain is a monogenic model for phenotypes associated with type 1 diabetes. A spontaneous mutation in the insulin 2 gene leads to incorrect folding of the proinsulin protein producing toxicity in pancreatic beta-cells, reduced beta-cell mass and reduced insulin secretion. As a result, Akita mice suffer with glucose levels that are two to four-fold higher than healthy mice. […] Animals: C57BL/6-Ins2^Akita/J (Akita) are an excellent model for Mutant-insulin Diabetes of Youth. Akita mice suffer from diabetes due to misfolded proinsulin, as the gene that codes for proinsulin (Ins2) is mutated. […] One male Akita mice was bred to female mice and the progeny were back-crossed to obtain enough number of heterozygous and wild-type male mice. The genotype of the mice was confirmed by using methods described previously. […] Fasting glucose was determined using AlphaTrak-2 glucometer. […] Fasting (6 hr) blood glucose was determined from tail clips before starting the mice on BSO and 1, 3, 4, 7, and 8 weeks after treating with BSO. […]

[5] = Effect of BSO on body weight; assay type: in vivo, mice; conditions: 15 mM BSO in drinking water for eight weeks, weighed weekly
Text: (§2) Animals: C57BL/6-Ins2^Akita/J (Akita) are an excellent model for Mutant-insulin Diabetes of Youth. Akita mice suffer from diabetes due to misfolded proinsulin, as the gene that codes for proinsulin (Ins2) is mutated. […] One male Akita mice was bred to female mice and the progeny were back-crossed to obtain enough number of heterozygous and wild-type male mice. The genotype of the mice was confirmed by using methods described previously. Briefly, the polymerase chain reaction product of the amplicons from the mutated region of the Ins 2 gene were subjected to restriction enzyme digestion and the products of the digestion were separated in agarose gels. Based on the number of fragments that resulted from the digestion, the genotypes of mice were confirmed. Only heterozygous male mice were used in the experiments. After two rounds of breeding, 12 heterozygous Akita and 12 wild-type Akita mice. After reaching 15-weeks of age, mice in each genotype were randomized into two groups of 6 animals each (n=6/group). All mice were given either 0 mM or 15 mM of D,L-Buthionine-(S,R)-sulfoximine (BSO, Toronto Research Chemicals Inc., ON, CA) administered in drinking water. […]
Experiment 1. […] Body weight was monitored every week.
(§3) Body weight (see FIG. 1) and food consumption (see FIG. 2) was monitored weekly. […]

[6] = Effect of BSO on food intake; assay type: in vivo, mice; conditions: 15 mM BSO in drinking water for eight weeks, measured weekly
Text: as §2
Experiment 2. […] Food intake was measured every week.
as §3

SMILES: CCCCS(=N)(=O)CC[C@H](N)C(=O)O (mixture of isomers) [BSO, D,L-Buthionine-(S,R)-sulfoximine]
- glucose tolerance area under the curve decreased to ([1]; Akita mice, baseline subtracted): less than 50%
- effect on glucose tolerance area under the curve ([1]; wild-type mice): did affect
- effect on blood glutathione concentration ([2]; Akita mice): decreased
- effect on blood glutathione concentration ([2]; wild-type mice): decreased
- effect on insulin tolerance area under the curve ([3]; Akita mice): No effect
- effect on insulin tolerance area under the curve ([3]; wild-type mice): No effect
- effect on fasting (6 hr) blood glucose [4]: Decrease in glucose levels in Akita was evident within one week
- effect on body weight ([5]; Akita mice): lack of the effect
- effect on body weight ([5]; wild-type mice): lack of the effect
- effect on food intake ([6]; Akita mice): does not affect
- effect on food intake ([6]; wild-type mice): does not affect
